Measured values published in US11103562B2, “Composition comprising alkaline phosphatase for use in the treatment of arthritides” (AMRIF BV, priority 2017, dated 2021).
Entries after “also recorded” stand apart in the source; their conditions may differ.

Legend:
[1] = test system: macrophages; conditions: rat, in vivo
Procedure: At the end of the treatment period, arthritic rats receiving 4× AP, 4× AP/low dose MTX, 4× AP/high dose MTX treatment, and untreated rats, were administered with [^18F]fluoro-PEG-folate tracer. Sixty minutes after tracer administration, rats were sacrificed. Low and high dose MTX treated arthritic rats were sacrificed without tracer administration. Upon sacrificing, all rats were excised and knees, blood and various internal organs were collected, rinsed, dipped dry, weighed and the amount of radioactivity determined using an LKB 1282 Compugamma CS gamma counter (LKB, Wallac, Turku, Finland). Results for tracer uptake in the various tissues were expressed as percentage of the injected dose per gram tissue (%ID/g).

[2] = test system: ED1+ and ED2+ synovial macrophages; assay: Synovial macrophage infiltration (ED1/ED2 immunohistochemistry) in knees of rats with mBSA antigen-induced arthritis; format: in vivo, rat
Procedure: (§1) Experiments were performed using a rat model for RA as published by Chandruputla et al. (BioMed Int, 2015) to show the effects of recombinant human alkaline phosphatase (hRESCAP) on RA. hRESCAP was compared with MTX used as a positive control. The antigen-induced rat model uses two subcutaneous immunizations with a mixture of methylated bovine serum albumin (mBSA), CFA (complete Freund's adjuvant antigen) and CBP (custom Bordetella pertussis antigen) and intra-articular injections of mBSA on one side knee and saline (negative control) on the counter knee. Immunohistochemical (IHC) analysis specifically focussed on infiltration with macrophages and knee swelling is followed over time after therapeutic treatment with MTX, or hRESCAP.
(§2) In the rat model, RA is induced in the right knee (RA knee), the contralateral left knee serves as a internal control (control knee). The model allows various options for therapeutic interventions, either before intra-articular injections or during boosts injections with mBSA. Two hours prior to AP administration, rats received a dose of levamisole (50 mg/kg, s.c.). For comparison, arthritic rats received treatment with methotrexate (1 mg/kg, i.p.).
At the end of the experiment, rats were sacrificed and knees were decalcified and processed for IHC analysis of synovial macrophage infiltration, including 2 rat macrophage antibodies; ED1 (homolog of human CD68) and ED2 (homolog of human CD163, a proposed marker for human M2 anti-inflammatory macrophages). IHC analysis of ED1 and ED2 macrophages was performed in multiple quadrants of synovial tissue, as described by Chandruputla et al (BioMed Int, 2015). Macrophage counting included synovial lining layer (SL 1-10) and synovial sublining layers (SL 1-20).
(§3) All rats (except healthy) were immunized and arthritis was induced via 1× or 4× intra-articular (i.a) mBSA injections, 4 or 5 days apart in the arthritic (right) knee, the contralateral (left, non-arthritic) knee serving as control knee. For therapeutic interventions, AP (human recombinant placenta AP, TNO, Zeist, The Netherlands) was administered subcutaneously (s.c.) at a dose of 700 U/kg (≈200 μg), MTX (VU University Medical Centers' Pharmacy) was administered intra-peritoneal (i.p.) at two dosages: 0.3 mg/kg (low dose) and 1.0 mg/kg (high dose). The rats were divided in 8 groups, based on different treatments and treatment schedules. In a prophylactic setting, two rats received AP twice prior to intra-articular (i.a.) arthritis induction and four rats received AP twice prior to intra-articular and 4× PBS in between i.a. injections. In the treatment groups, arthritic rats were administered AP twice or 4× after arthritis induction, either as standalone therapy or in combination with low or high dose MTX. Control rats received 500 μL of PBS (i.p.). […] At the end of study, all rats were sacrificed and tissues were excised for further processing and various analyses.
The arthritic and contralateral knees from all rats were dissected in toto and fixed for 7 days at 4° C. in 10% freshly made paraformaldehyde in PBS with 2% sucrose (pH=7.3) prior to decalcification in osteosoft (101728, Merck, Germany) for ˜2.5 weeks at room temperature. Thereafter, knees were embedded in paraffin. Sections of 5 μm were cut through the centre of the joint in longitudinal direction and stained with haematoxylin and eosin (HE) to assess the degree of inflammation in synovial tissue. Liver and spleen sections from all rats were dissected and fixed in 4% paraformaldehyde for 24 h before embedding in paraffin. Sections of 5 μm were cut and stained initially with HE and then for macrophages Staining for macrophages with ED1 (homologous to human CD68), and ED2 (homologous to human CD163, a marker for M2 anti-inflammatory macrophages), or isotype control antibody was performed. Images were captured using a Leica 4000B microscope and Leica digital camera DC500 (Microsystems B. V. Rijswijk, The Netherlands). […]

[3] = test system: arthritic rats; assay: Knee swelling in rats with mBSA antigen-induced arthritis; format: in vivo, rat
Procedure: as §1, §2, §3

[4] = Tolerability of therapeutic interventions in arthritic rats; format: in vivo
Procedure: as §3

[5] = cited from earlier work; for plasma residence time: in vivo

[^18F]fluoro-PEG-folate [reference compound]
clearance of the tracer from plasma [1]: rapidly cleared from plasma

CN(Cc1cnc2nc(N)nc(N)c2n1)c1ccc(C(=O)N[C@@H](CCC(=O)O)C(=O)O)cc1 [MTX, Methotrexate, reference compound]
effect of the two MTX doses on the number of ED1 macrophages in the arthritic knee ([2]; MTX 0.3 mg/kg versus 1.0 mg/kg): identical effect | ED1+ synovial macrophage infiltration in arthritic knee (in words) ([2]; therapeutic treatment, 4× after first i.a. and in between boosts, AP 700 U/kg, MTX 1 mg/kg): even more reduced macrophage ED1+ counts; also recorded: very much reduced | swelling of the mBSA-injected right knee ([3]; prophylactic and therapeutic AP treatment or MTX treatment, versus positive control): Reduced swelling | swelling of the non-treated left knee ([3]; versus positive control treatment): swelling is reduced | changes in body weight [4]: nor were significant changes in the body weight observed

B1: intestinal isoenzyme: intestinal alkaline phosphatase isoenzyme, tissue specific ectophosphatase (protein, UniProt P09923 20-503, looked up)
Intestinal-type alkaline …: VIPAEEENPAFWNRQAAEALDAAKKLQPIQKVAKNLILFLGDGLGVPTVTATRILKGQKNGKLGPETPLAMDRFPYLALSKTYNVDRQVPDSAATATAYLCGVKANFQTIGLSAAARFNQCNTTRGNEVISVMNRAKQAGKSVGVVTTTRVQHASPAGTYAHTVNRNWYSDADMPASARQEGCQDIATQLISNMDIDVILGGGRKYMFPMGTPDPEYPADASQNGIRLDGKNLVQEWLAKHQGAWYVWNRTELMQASLDQSVTHLMGLFEPGDTKYEIHRDPTLDPSLMEMTEAALRLLSRNPRGFYLFVEGGRIDHGHHEGVAYQALTEAVMFDDAIERAGQLTSEEDTLTLVTADHSHVFSFGGYTLRGSSIFGLAPSKAQDSKAYTSILYGNGPGYVFNSGVRPDVNESESGSPDYQQQAAVPLSSETHGGEDVAVFARGPQAHLVHGVQEQSFVAHVMAFAACLEPYTACDLAPPACTTD
plasma residence time [5]: short plasma residence time

B2: placental ALP: human placental alkaline phosphatase isoenzyme, fully glycosylated tissue specific ectophosphatase (native or recombinant) (protein, UniProt P05187 23-506, looked up)
Alkaline phosphatase, …: IIPVEEENPDFWNREAAEALGAAKKLQPAQTAAKNLIIFLGDGMGVSTVTAARILKGQKKDKLGPEIPLAMDRFPYVALSKTYNVDKHVPDSGATATAYLCGVKGNFQTIGLSAAARFNQCNTTRGNEVISVMNRAKKAGKSVGVVTTTRVQHASPAGTYAHTVNRNWYSDADVPASARQEGCQDIATQLISNMDIDVILGGGRKYMFRMGTPDPEYPDDYSQGGTRLDGKNLVQEWLAKRQGARYVWNRTELMQASLDPSVTHLMGLFEPGDMKYEIHRDSTLDPSLMEMTEAALRLLSRNPRGFFLFVEGGRIDHGHHESRAYRALTETIMFDDAIERAGQLTSEEDTLSLVTADHSHVFSFGGYPLRGSSIFGLAPGKARDRKAYTVLLYGNGPGYVLKDGARPDVTESESGSPEYRQQSAVPLDEETHAGEDVAVFARGPQAHLVHGVQEQTFIAHVMAFAACLEPYTACDLAPPAGTTD
plasma residence time [5]: 6 to 7 days | half-life (T1/2) of clearance out of circulation ([5]; pregnant women): 7 days
